In patent US8309546B2, “Morpholinopurine derivatives” (Daiichi Sankyo Company, Limited, priority 2008, dated 2012):

Columns and labels:
[1] = test system: Akt (threonine 308) phosphorylation in AN3CA tumor; test: Akt phosphorylation inhibition assay in xenograft; assay type: in vivo, female nude mouse; conditions: Mus musculus, AN3-CA, oral, 6 hr after dosing
Procedure: (§1) A tumor section was prepared from a human endometrial cancer cell strain AN3CA tumor mass formed in a female nude mouse as subcutaneously transplanted tumor and a xenograft model was prepared by subcutaneously transplanting the tumor to a female nude mouse. The test compound at a predetermined concentration was orally administered. After a predetermined time, the anesthetized mouse was exsanguinated to death, and a tumor mass was isolated. The tumor mass was crushed using a lysis buffer containing inhibitors of proteases and dephosphorylating enzymes (Cell Signaling Technology, Inc.) and the supernatant was separated by centrifugation to obtain a tumor extract. The protein content of the tumor extract was measured using DC Protein Assay Kit (Bio-Rad Laboratories, Inc.) and phosphorylation conditions of Akt (threonine 308) and S6 (serine 235 and 236) were analyzed by a usual technique of western blotting using tumor extracts containing the same amount of protein. The primary antibody and the secondary antibody used for detecting each molecule were rabbit anti-phospho-Akt(T308) antibody and HRP-labeled goat anti-rabbit IgG antibody or mouse anti-phospho-S6(S235/236) antibody and HRP-labeled sheep anti-mouse IgG antibody.
(§2) The signal intensity detected using an image analyzer Typhoon 9400 (GE Healthcare) was quantified, and the phosphorylation inhibition rate (%) was calculated by the following formula. Phosphorylation inhibitory activity (%) of Akt and S6 after treatment with test compound=100−100×(B/A) A: Signal intensity derived from phosphorylated protein in tumor mass isolated from mouse untreated with test compound B: Signal intensity derived from phosphorylated protein in tumor mass isolated from mouse treated with test compound

[2] = molecular target: T1, human mTOR (His-tagged mTOR (1362C)) (Homo sapiens, UniProt P42345); test: mTOR kinase activity inhibition assay; assay type: biochemical; conditions: HTRF, read-out: IC50 against mTOR
T1 construct: the 1362 to 2549 amino acid portion on the C terminus side of human mTOR; His tag (N); made in house
Method in brief: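 Crude His-tagged mTOR (aa 1362–2549) from stable HEK293 cells, with 8 μg/ml biotinylated peptide in 50 mM HEPES pH 7.5, 20 mM MnCl2; compound diluted in 20 μM ATP solution, reaction 3 h at room temperature. Phospho-peptide detected by HTRF (anti-phospho-S6K Thr389 cryptate/streptavidin-XL665, overnight at 4°C), 665/620 nm ratio. IC50 derived from curve fit of % inhibition.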

[3] = test system: S6 (serine 235 and 236) phosphorylation in AN3CA tumor; test: S6 phosphorylation inhibition assay in xenograft; assay type: in vivo, female nude mouse; conditions: Mus musculus, AN3-CA, oral, 6 hr after dosing
Procedure: as §1, §2

T1 sequence (P42345 1362-2549): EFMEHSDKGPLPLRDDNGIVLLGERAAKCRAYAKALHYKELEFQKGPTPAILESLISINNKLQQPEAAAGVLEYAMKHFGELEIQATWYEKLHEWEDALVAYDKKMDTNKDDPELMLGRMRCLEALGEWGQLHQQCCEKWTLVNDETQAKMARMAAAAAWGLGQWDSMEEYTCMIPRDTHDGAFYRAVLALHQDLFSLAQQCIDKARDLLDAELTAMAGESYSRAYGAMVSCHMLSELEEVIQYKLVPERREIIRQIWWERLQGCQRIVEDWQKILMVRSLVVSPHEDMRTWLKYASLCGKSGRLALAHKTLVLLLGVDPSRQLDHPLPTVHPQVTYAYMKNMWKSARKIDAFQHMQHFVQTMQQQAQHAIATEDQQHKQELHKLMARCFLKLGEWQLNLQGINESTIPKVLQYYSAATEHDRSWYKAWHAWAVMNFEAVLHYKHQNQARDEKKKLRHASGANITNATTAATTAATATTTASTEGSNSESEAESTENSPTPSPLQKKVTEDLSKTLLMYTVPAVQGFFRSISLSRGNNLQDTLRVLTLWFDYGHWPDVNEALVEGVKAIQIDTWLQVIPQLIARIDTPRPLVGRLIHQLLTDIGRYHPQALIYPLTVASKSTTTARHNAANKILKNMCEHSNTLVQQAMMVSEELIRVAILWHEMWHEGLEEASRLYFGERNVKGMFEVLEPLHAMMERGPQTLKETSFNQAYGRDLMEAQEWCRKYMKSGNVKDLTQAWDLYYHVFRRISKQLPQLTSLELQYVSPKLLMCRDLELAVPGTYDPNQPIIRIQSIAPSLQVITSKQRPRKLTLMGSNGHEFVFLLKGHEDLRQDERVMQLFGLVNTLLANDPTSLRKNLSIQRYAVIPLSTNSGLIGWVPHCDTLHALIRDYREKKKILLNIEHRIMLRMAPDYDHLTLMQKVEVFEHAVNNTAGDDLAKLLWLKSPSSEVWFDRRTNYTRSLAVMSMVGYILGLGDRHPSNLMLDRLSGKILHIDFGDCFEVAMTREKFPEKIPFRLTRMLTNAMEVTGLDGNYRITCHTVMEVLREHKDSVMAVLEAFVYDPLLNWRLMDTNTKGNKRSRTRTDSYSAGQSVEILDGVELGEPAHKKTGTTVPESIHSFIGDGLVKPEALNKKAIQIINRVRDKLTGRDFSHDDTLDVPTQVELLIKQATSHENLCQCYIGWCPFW

| SMILES | IC50 [2] [nM] | inhibition at 10 mg/kg [1] [%] | inhibition at 10 mg/kg [3] [%] |
| --- | --- | --- | --- |
| CC(=O)C(=O)N1CCN(c2nc3c(N4CCOCC4)nc(-c4cnc(N)nc4)nc3n2CC(F)(F)F)CC1 [Example 65, 1-{4-[2-(2-Aminopyrimidin-5-yl)-6-morpholin-4-yl-9-(2,2,2-trifluoroethyl)-9H-purin-8-yl]piperazin-1-yl}-1-oxoacetone] | < 10 | 30 to 60 | > 90 |
| CC(C)Cn1c(N2CCN(C=O)CC2)nc2c(N3CCOC[C@@H]3C)nc(-c3cnc(N)nc3)nc21 [Example 132, 4-{2-(2-Aminopyrimidin-5-yl)-9-isobutyl-6-[(3S)-3-methylmorpholin-4-yl]-9H-purin-8-yl}piperazine-1-carboaldehyde] | 10 to 30 | > 60 | > 90 |
| C[C@H](O)C(=O)N1CCN(c2nc3c(N4CCOCC4)nc(-c4cnc(N)nc4)nc3n2CC(F)(F)F)C[C@@H]1C [Example 109, (2S)-1-{(2S)-4-[2-(2-Aminopyrimidin-5-yl)-6-morpholin-4-yl-9-(2,2,2-trifluoroethyl)-9H-purin-8-yl]-2-methylpiperazin-1-yl}-1-oxopropan-2-ol] | < 10 | > 60 | > 90 |
| CNc1ncc(-c2nc(N3CCOCC3)c3nc(N4CCN(C(C)=O)[C@H](C)C4)n(CC(F)(F)F)c3n2)cn1 [Example 108, 5-{8-[(3R)-4-Acetyl-3-methylpiperazin-1-yl]-6-morpholin-4-yl-9-(2,2,2-trifluoroethyl)-9H-purin-2-yl}-N-methylpyrimidin-2-amine] | < 10 | > 60 | > 90 |
| C[C@@H](O)CC(=O)N1CCN(c2nc3c(N4CCOCC4)nc(-c4cnc(N)nc4)nc3n2CC(F)(F)F)CC1 [Example 70, (2R)-4-{4-[2-(2-Aminopyrimidin-5-yl)-6-morpholin-4-yl-9-(2,2,2-trifluoroethyl)-9H-purin-8-yl]piperazin-1-yl}-4-oxobutan-2-ol] | < 10 | > 60 | > 90 |
| CC(C)Cn1c(N2CCN(C(=O)C[C@@H](C)O)CC2)nc2c(N3CCOCC3)nc(-c3cnc(N)nc3)nc21 [Example 81, (2R)-4-{4-[2-(2-Aminopyrimidin-5-yl)-9-isobutyl-6-morpholin-4-yl-9H-purin-8-yl]piperazin-1-yl}-4-oxobutan-2-ol] | 10 to 30 | > 60 | > 90 |
| CNc1ncc(-c2nc(N3CCOCC3)c3nc(N4CCN(CC(=O)N(C)C)[C@H](C)C4)n(CC(F)(F)F)c3n2)cn1 [Example 87, N,N-Dimethyl-2-[(2R)-2-methyl-4-{2-[2-(methylamino)pyrimidin-5-yl]-6-morpholin-4-yl-9-(2,2,2-trifluoroethyl)-9H-purin-8-yl}piperazin-1-yl]acetamide] | 10 to 30 | > 60 |  |
| CC(=O)N1CCN(c2nc3c(N4CCOC[C@@H]4C)nc(-c4cnc(N)nc4)nc3n2CC(C)C)CC1 [Example 129, 5-{8-(4-Acetylpiperazin-1-yl)-9-isobutyl-6-[(3S)-3-methylmorpholin-4-yl]-9H-purin-2-yl}pyrimidin-2-amine] | 10 to 30 |  | 70 to 90 |
| C[C@@H]1CN(c2nc3c(N4CCOCC4)nc(-c4cnc(N)nc4)nc3n2CC(F)(F)F)C[C@H](C)N1 [Example 14, 5-[8-(cis-3,5-Dimethylpiperazin-1-yl)-6-morpholin-4-yl-9-(2,2,2-trifluoroethyl)-9H-purin-2-yl]pyrimidin-2-amine] | 10 to 30 |  |  |
| CC(C)Cn1c(N2CCN(C(=O)CN(C)C)CC2)nc2c(N3CCOCC3)nc(-c3cnc(N)nc3)nc21 [Example 55, 5-(8-{4-[(Dimethylamino)acetyl]piperazin-1-yl}-9-isobutyl-6-morpholin-4-yl-9H-purin-2-yl)pyrimidin-2-amine] | 30 to 100 |  |  |
| CC(=O)N1CCN(c2nc3c(N4CCOCC4)nc(-c4cnc(N)nc4)nc3n2CC(C)C)C[C@H]1C [Example 99, 5-{8-[(3R)-4-Acetyl-3-methylpiperazin-1-yl]-9-isobutyl-6-morpholin-4-yl-9H-purin-2-yl}pyrimidin-2-amine] | 10 to 30 | 30 to 60 |  |
| C[C@H]1COCCN1c1nc(-c2cnc(N)nc2)nc2c1nc(N1CCN(S(C)(=O)=O)CC1)n2CC(F)(F)F [Example 127, 5-{6-[(3S)-3-Methylmorpholin-4-yl]-8-[4-(methylsulfonyl)piperazin-1-yl]-9-(2,2,2-trifluoroethyl)-9H-purin-2-yl}pyrimidin-2-amine] | < 10 |  |  |

Second part, led by results:

| IC50 [2] [nM] | SMILES | inhibition at 10 mg/kg [1] [%] | inhibition at 10 mg/kg [3] [%] |
| --- | --- | --- | --- |
| 10 to 30 | CC(=O)N1CCN(c2nc3c(N4CCOCC4)nc(-c4cnc(N)nc4)nc3n2CC2CC2)C[C@H]1C [Example 97, 5-{8-[(3R)-4-Acetyl-3-methylpiperazin-1-yl]-9-(cyclopropylmethyl)-6-morpholin-4-yl-9H-purin-2-yl}pyrimidin-2-amine] | 30 to 60 | 70 to 90 |
| 10 to 30 | C[C@@H]1CN(c2nc3c(N4CCOCC4)nc(-c4cnc(N)nc4)nc3n2CC2CC2)CCN1C(=O)[C@@H](C)O [Example 114, (2R)-1-{(2R)-4-[2-(2-Aminopyrimidin-5-yl)-9-(cyclopropylmethyl)-6-morpholin-4-yl-9H-purin-8-yl]-2-methylpiperazin-1-yl}-1-oxopropan-2-ol] | > 60 | > 90 |
| 10 to 30 | CS(=O)(=O)N1CCN(c2nc3c(N4CCOCC4)nc(-c4cnc(N)nc4)nc3n2CC2CC2)CC1 [Example 3, 5-{9-(Cyclopropylmethyl)-8-[4-(methylsulfonyl)piperazin-1-yl]-6-morpholin-4-yl-9H-purin-2-yl}pyrimidin-2-amine] | > 60 | > 90 |
| 10 to 30 | CC(=O)N1CCN(c2nc3c(N4CCOCC4)nc(-c4cnc(N)nc4)nc3n2CC(C)C)CC1 [Example 2, 5-[8-(4-Acetylpiperazin-1-yl)-9-isobutyl-6-morpholin-4-yl-9H-purin-2-yl]pyrimidin-2-amine] |  |  |
| 10 to 30 | CC(=O)N1CCN(c2nc3c(N4CCOCC4)nc(-c4cnc(N)nc4)nc3n2CC2CC2)CC1 [Example 10, 5-[8-(4-Acetylpiperazin-1-yl)-9-(cyclopropylmethyl)-6-morpholin-4-yl-9H-purin-2-yl]pyrimidin-2-amine] |  |  |
| 10 to 30 | CC(C)Cn1c(N2CCN(S(C)(=O)=O)[C@@H](C)C2)nc2c(N3CCOCC3)nc(-c3cnc(N)nc3)nc21 [Example 53, 5-{9-Isobutyl-8-[(3S)-3-methyl-4-(methylsulfonyl)piperazin-1-yl]-6-morpholin-4-yl-9H-purin-2-yl}pyrimidin-2-amine] | 30 to 60 |  |
| 100 to 500 | CC(=O)N1CCN(c2nc3c(N4CCOC[C@@H]4C)nc(-c4cnc(N)nc4C)nc3n2CC2CC2)CC1 [Example 128, 5-{8-(4-acetylpiperazin-1-yl)-9-(cyclopropylmethyl)-6-[(3S)-3-methylmorpholin-4-yl]-9H-purin-2-yl}-4-methylpyrimidin-2-amine] | 30 to 60 |  |
| 30 to 100 | CC(C)Cn1c(N2CCN(S(C)(=O)=O)[C@H](C)C2)nc2c(N3CCOCC3)nc(-c3cnc(N)nc3)nc21 [Example 54, 5-{9-Isobutyl-8-[(3R)-3-methyl-4-(methylsulfonyl)piperazin-1-yl]-6-morpholin-4-yl-9H-purin-2-yl}pyrimidin-2-amine] | 30 to 60 |  |
| < 10 | CNc1ncc(-c2nc(N3CCOCC3)c3nc(N4CCN(S(C)(=O)=O)CC4)n(CC(F)(F)F)c3n2)cn1 [Example 11, N-Methyl-5-{8-[4-(methylsulfonyl)piperazin-1-yl]-6-morpholin-4-yl-9-(2,2,2-trifluoroethyl)-9H-purin-2-yl}pyrimidin-2-amine] |  |  |
| 10 to 30 | CC(C)Cn1c(N2CCN(S(C)(=O)=O)CC2)nc2c(N3CCOCC3)nc(-c3cnc(N)nc3)nc21 [Example 1, 5-{9-Isobutyl-8-[4-(methylsulfonyl)piperazin-1-yl]-6-morpholin-4-yl-9H-purin-2-yl}pyrimidin-2-amine] |  |  |
| 100 to 500 | Cc1nc(N)ncc1-c1nc(N2CCOCC2)c2nc(N3CCN(S(C)(=O)=O)CC3)n(CC3CC3)c2n1 [Example 6, 5-{9-(Cyclopropylmethyl)-8-[4-(methylsulfonyl)piperazin-1-yl]-6-morpholin-4-yl-9H-purin-2-yl}-4-methylpyrimidin-2-amine] | > 60 |  |
